What was measured:
[1] = biological target: T1, α2AAR (α2A-adrenergic receptor) (Homo sapiens, UniProt P08913); test: α2AAR FLIPR assay (agonist activity); type: cell-based; settings: FLIPR, α2AAR cell line hosted in HEK293 cells; read-out: α2A agonist activity (EC50)
T1 construct: expressed in transfected cells; host or cells: HEK293
T1 sequence (P08913 1-465): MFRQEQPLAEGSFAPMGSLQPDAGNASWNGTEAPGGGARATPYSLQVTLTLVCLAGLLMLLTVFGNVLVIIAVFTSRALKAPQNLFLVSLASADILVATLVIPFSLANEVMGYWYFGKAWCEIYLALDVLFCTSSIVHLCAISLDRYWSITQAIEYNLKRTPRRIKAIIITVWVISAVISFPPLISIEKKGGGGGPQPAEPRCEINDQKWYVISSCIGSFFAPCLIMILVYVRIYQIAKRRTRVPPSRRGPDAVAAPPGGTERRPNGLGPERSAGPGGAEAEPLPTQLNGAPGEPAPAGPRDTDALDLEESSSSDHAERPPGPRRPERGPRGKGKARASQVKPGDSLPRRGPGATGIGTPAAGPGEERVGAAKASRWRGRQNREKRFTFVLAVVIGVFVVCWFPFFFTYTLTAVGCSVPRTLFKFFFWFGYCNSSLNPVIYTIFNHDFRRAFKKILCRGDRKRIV
How it was run: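 HEK293 cells expressing α2AAR loaded with Fluo-4 Direct plus probenecid for 50 min at 37° C and 10 min at room temperature, then treated with serially diluted compounds.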

α2AAR = biological target: T2, α2AAR (Homo sapiens, UniProt P08913); test: α2AAR binding assay ([3H]-RX 821002 radioligand); settings: [3H]-RX 821002 0.5 nM, HEK293 membranes; read-out: α2A affinity (Ki)
T2 construct: host or cells: HEK293 (membranes)
T2 sequence (P08913 1-465): T1 sequence (P08913 1-465)

[2] = biological target: P-glycoprotein (P-gp, MDR1) (Homo sapiens, UniProt P08183); test: in vitro; settings: dog, MDCK-MDR1, pH 7.4
P-glycoprotein (P-gp, MDR1), sequence (P08183 whole entry): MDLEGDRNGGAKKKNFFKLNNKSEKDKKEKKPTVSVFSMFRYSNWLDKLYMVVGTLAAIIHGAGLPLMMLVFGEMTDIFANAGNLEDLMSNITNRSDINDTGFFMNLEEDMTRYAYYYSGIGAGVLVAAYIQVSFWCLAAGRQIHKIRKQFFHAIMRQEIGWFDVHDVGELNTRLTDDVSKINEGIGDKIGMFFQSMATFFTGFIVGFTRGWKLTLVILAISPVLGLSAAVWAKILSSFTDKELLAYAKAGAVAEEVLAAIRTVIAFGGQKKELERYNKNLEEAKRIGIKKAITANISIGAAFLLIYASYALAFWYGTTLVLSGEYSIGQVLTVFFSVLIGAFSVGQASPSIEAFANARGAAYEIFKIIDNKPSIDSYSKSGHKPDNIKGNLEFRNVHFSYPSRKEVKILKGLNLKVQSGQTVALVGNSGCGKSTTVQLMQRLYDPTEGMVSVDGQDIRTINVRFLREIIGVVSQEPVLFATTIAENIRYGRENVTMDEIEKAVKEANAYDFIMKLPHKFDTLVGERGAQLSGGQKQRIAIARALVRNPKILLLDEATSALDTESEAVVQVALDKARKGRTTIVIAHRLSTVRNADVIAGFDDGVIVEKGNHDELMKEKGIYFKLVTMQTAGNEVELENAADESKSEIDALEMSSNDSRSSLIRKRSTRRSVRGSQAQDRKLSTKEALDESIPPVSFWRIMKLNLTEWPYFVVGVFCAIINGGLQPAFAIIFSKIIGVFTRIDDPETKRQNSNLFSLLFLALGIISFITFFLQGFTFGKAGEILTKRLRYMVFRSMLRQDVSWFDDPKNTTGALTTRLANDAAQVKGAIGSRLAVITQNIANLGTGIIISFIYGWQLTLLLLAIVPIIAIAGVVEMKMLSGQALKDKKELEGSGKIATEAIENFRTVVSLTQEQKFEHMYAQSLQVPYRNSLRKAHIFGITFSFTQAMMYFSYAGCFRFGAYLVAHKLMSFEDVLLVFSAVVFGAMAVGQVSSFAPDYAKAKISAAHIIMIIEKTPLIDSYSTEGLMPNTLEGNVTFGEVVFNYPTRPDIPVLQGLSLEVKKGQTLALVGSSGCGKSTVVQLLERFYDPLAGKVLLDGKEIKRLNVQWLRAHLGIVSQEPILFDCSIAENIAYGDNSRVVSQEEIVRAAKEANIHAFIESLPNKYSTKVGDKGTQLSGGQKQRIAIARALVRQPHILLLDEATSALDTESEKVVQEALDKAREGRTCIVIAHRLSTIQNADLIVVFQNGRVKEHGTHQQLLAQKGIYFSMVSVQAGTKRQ
Protocol: MDR1-MDCK II cells (obtained from Piet Borst at the Netherlands Cancer Institute) were seeded onto Polycarbonate membranes (PC) in 96-well insert systems at 3.33×10^5 cells/mL until to 4-7 days for confluent cell monolayer formation.
Selected α2AR agonist from table 3s were diluted with the transport buffer (HBSS with 10.0 mM Hepes, pH7.4) from DMSO stock solution to a concentration of 2 μM (DMSO<1%) and applied to the apical or basolateral side of the cell monolayer. […] Permeation of the test compounds from A to B direction and/or B to A direction was determined in duplicate. Digoxin was tested at 10.0 μM from A to B direction and B to A direction in duplicate. The plate was incubated for 2.5 hours in CO2 incubator at 37.0±1.0° C., with 5.0% CO2 at saturated humidity without shaking. In addition, the efflux ratio of each compound was also determined. Test and reference compounds were quantified by LC/MS/MS analysis based on the peak area ratio of analyte/IS.
After transport assay, lucifer yellow rejection assay was applied to determine the cell monolayer integrity. Buffers were removed from both apical and basolateral chambers, followed by the addition of 75 μL of 100 μM lucifer yellow in transport buffer and 250 μL transport buffer in apical and basolateral chambers, respectively. The plate was incubated for 30 minutes at 37.0° C. with 5.0% CO2 and 95.0% relative humidity without shaking. After 30 minutes incubation, 20 μL of lucifer yellow samples were taken from the apical sides, followed by the addition of 60 μL of transport Buffer. And then 80 μL of lucifer yellow samples were taken from the basolateral sides. The relative fluorescence unit (RFU) of lucifer yellow was measured at 425/528 nm (excitation/emission) with an Envision plate reader.
The apparent permeability coefficient Papp (cm/s) was calculated using the equation: […]
wherein dCr/dt is the cumulative concentration of compound in the receiver chamber as a function of time (μM/s); Vr is the solution volume in the receiver chamber (0.075 mL on the apical side, 0.25 mL on the basolateral side); A is the surface area for the transport, i.e. 0.143 cm2 for the area of the monolayer; and C0 is the initial concentration in the donor chamber (μM).
The efflux ratio was calculated using the equation: […]

Compound	EC50 [1]	Ki (α2AAR)	efflux ratio at 2.5 h, 2 μM [2]
Cc1cccc(C(c2cccc(NC(=O)NC3CCOCC3)c2)c2c[nH]cn2)c1C (stereo not drawn) [compound 111]	10 to 50 nM	10 to 50 nM	173
Cc1cccc(C(Cc2cccc(NS(=O)(=O)CC3CCOCC3)c2)c2c[nH]cn2)c1C (stereo not drawn) [compound 112]	10 to 50 nM	< 10 nM	58.4
Cc1cccc(C(c2c[nH]cn2)c2cccc(C(=O)NCC3CCOCC3)c2O)c1C (stereo not drawn) [compound 138]	10 to 50 nM	< 10 nM	7.85
Cc1cccc(C(c2cccc(NC(=O)CC[N+](C)(C)C)c2)c2c[nH]cn2)c1C (stereo not drawn) [compound 141]	50 to 250 nM	10 to 50 nM	2.61
Cc1cccc(C(Cc2ccc(NS(=O)(=O)C3CCOCC3)cc2)c2c[nH]cn2)c1C (stereo not drawn) [compound 158]	10 to 50 nM	< 10 nM	23.7
Cc1cccc(C(Cc2ccc(C(N)=O)cc2)c2c[nH]cn2)c1C (stereo not drawn) [compound 163]	10 to 50 nM	< 10 nM	9.08
Cc1cccc(C(Cc2ccc(NC(=O)CC3CCOCC3)cc2)c2c[nH]cn2)c1C (stereo not drawn) [compound 165]	< 10 nM	< 10 nM	14.8
Cc1cccc(C(Cc2ccc(C(=O)NC3CCOCC3)nc2)c2c[nH]cn2)c1C (stereo not drawn) [compound 186]	10 to 50 nM	10 to 50 nM	3.38
Cc1cccc(C(Cc2ccc(C(=O)NC3CCOCC3)c(F)c2)c2c[nH]cn2)c1C (stereo not drawn) [compound 187]	10 to 50 nM	< 10 nM	2.6
CC(=O)Nc1ccc(CC(c2c[nH]cn2)c2cccc(C)c2C)cc1 (stereo not drawn) [compound 190]	10 to 50 nM	< 10 nM	4.91
Cc1cccc(C(Cc2ccc(NC(=O)C3COC3)cc2)c2c[nH]cn2)c1C (stereo not drawn) [compound 200]	10 to 50 nM	< 10 nM	27.7
Cc1cccc(C(Cc2ccc(NC(=O)NC3CCOCC3)cc2)c2c[nH]cn2)c1C (stereo not drawn) [compound 205]	10 to 50 nM	< 10 nM	61.8
Cc1cccc(C(Cc2ccc(S(N)(=O)=O)c(F)c2)c2c[nH]cn2)c1C (stereo not drawn) [compound 208]	< 10 nM	< 10 nM	8.88
COc1cc(CC(c2c[nH]cn2)c2cccc(C)c2C)ccc1C(=O)NC1CCOCC1 (stereo not drawn) [compound 213]	< 10 nM	< 10 nM	4.92
Cc1cccc(C(Cc2ccc(NC(=O)NC3COC3)cc2)c2c[nH]cn2)c1C (stereo not drawn) [compound 214]	10 to 50 nM	< 10 nM	56.1
CNC(=O)c1ccc(CC(c2c[nH]cn2)c2cccc(C)c2C)cc1 (stereo not drawn) [compound 215]	< 10 nM	< 10 nM	4.77
Cc1cccc(C(Cc2ccc(C(=O)N(C)C)cc2)c2c[nH]cn2)c1C (stereo not drawn) [compound 216]	< 10 nM	< 10 nM	3.21
Cc1cccc(C(Cc2ccc(S(N)(=O)=O)cc2)c2c[nH]cn2)c1C (stereo not drawn) [compound 217]	< 10 nM	< 10 nM	17.5
Cc1cccc(C(Cc2ccc(C(=O)NO)cc2)c2c[nH]cn2)c1C (stereo not drawn) [compound 219]	< 10 nM	< 10 nM	26.9
CCc1cscc1C(c1cccc(NS(C)(=O)=O)c1)c1c[nH]cn1 (stereo not drawn) [compound 401]	10 to 50 nM	< 10 nM	22

Source: patent US20240374573A1, “IMIDAZOLE CONTAINING COMPOUNDS, DERIVATIVES THEREFORE, AND USES THEREOF” (AglaeaPharma Inc., priority 2023, published 2024)
